Laboratory results: the CombiSolv-Exp solvation set (Vermeire and Green 2021)

Experiment: solvent given as SMILES

COc1ccc(C(=O)N(C)C)cc1
Conditions | solvation free energy, 298 K [kcal/mol]
in O | -11

Cc1ccncc1
Conditions | solvation free energy, 298 K [kcal/mol]
in CC(C)CC(C)(C)C | -4.95
in O | -4.94

OCC(O)C(O)C(O)C(O)CO (stereo unspecified)
Conditions | solvation free energy, 298 K [kcal/mol]
in O | -23.6

Nc1ccc(C(=O)O)cc1
Conditions | solvation free energy, 298 K [kcal/mol]
in C1COCCO1 | -14.6
in CC(C)CCO | -13.7
in CC(C)CO | -13.8
in CC(C)O | -14.2
in CCC(C)O | -14
in CCCC(C)O | -13.9
in CCCCCCCCCCO | -13.3
in CCCCCCCCO | -13.5
in CCCCCCCO | -13.7
in CCCCCCO | -13.8
in CCCCCO | -13.9
in CCCCO | -14.1
in CCCO | -14.3
in CCO | -14.6
in CCOCC | -13.6

Cc1ccncc1C
Conditions | solvation free energy, 298 K [kcal/mol]
in O | -5.22

c1ccc2c(c1)OCCOCCOCCOCCO2
Conditions | solvation free energy, 298 K [kcal/mol]
in Cc1cccc(C)c1 | -14.8
in O | -14.4

CCCCCOC(=O)c1ccccc1C(=O)OCCCCC
Conditions | solvation free energy, 298 K [kcal/mol]
in O | -6.96

C=C(C)C1CC=C(C)CCC=C(C)CC1 (stereo unspecified)
Conditions | solvation free energy, 298 K [kcal/mol]
in O | -0.37

C=C(C)CCC
Conditions | solvation free energy, 298 K [kcal/mol]
in O | 1.46

Clc1cc(Cl)c(Cl)cc1Cl
Conditions | solvation free energy, 298 K [kcal/mol]
in CCCCCCCCO | -7.67
in O | -1.34

O=Cc1ccccc1
Conditions | solvation free energy, 298 K [kcal/mol]
in CCCCCC | -5.53
in CCCCCCC | -5.5
in CCCCCCCCCCCCCCCC | -5.37
in O | -4.02

CCOP(=S)(OCC)SCSc1ccc(Cl)cc1
Conditions | solvation free energy, 298 K [kcal/mol]
in O | -6.5

CCCOC(=O)CC
Conditions | solvation free energy, 298 K [kcal/mol]
in O | -2.45

CC=CC
Conditions | solvation free energy, 298 K [kcal/mol]
in CC(=O)N(C)C | -2.17
in CC(C)=O | -2.47
in CCOC(C)=O | -2.77
in CN(C)C=O | -2.11
in O | 1.34
in O=CN1CCOCC1 | -1.45

O=C(CC(=O)C(F)(F)F)C(F)(F)F
Conditions | solvation free energy, 298 K [kcal/mol]
in O | -4.56

C=CC(C)CC (stereo unspecified)
Conditions | solvation free energy, 298 K [kcal/mol]
in CC#N | -2.7

ClC1=C(Cl)C2(Cl)C3C(Cl)C=CC3C1(Cl)C2(Cl)Cl (stereo unspecified)
Conditions | solvation free energy, 298 K [kcal/mol]
in CCCCCCCCC=CCCCCCCCC(=O)OCC(COC(=O)CCCCCCCC=CCCCCCCCC)OC(=O)CCCCCCCC=CCCCCCCCC | -13.5
in CCCCCCCCO | -10.6
in O | -2.55

CCCCCCCCCCCCCC(=O)OC
Conditions | solvation free energy, 298 K [kcal/mol]
in O | -1.14

CN(C)CCOC(c1ccccc1)c1ccccc1
Conditions | solvation free energy, 298 K [kcal/mol]
in O | -9.34

CCc1ccc2c(c1)C(=O)c1ccccc1C2=O
Conditions | solvation free energy, 298 K [kcal/mol]
in C1CCCCC1 | -12.2
in C1CCOC1 | -14.2
in C1COCCO1 | -14.1
in CC1CCCCC1 | -12.1
in CC(C)CC(C)(C)C | -11.6
in CC(C)CCO | -12.2
in CC(C)CO | -12.1
in CC(C)O | -12.1
in CC(C)OC(C)C | -12.4
in CCC(C)O | -12.3
in CCCC(C)O | -12.3
in CCCCC(CC)CO | -12.4
in CCCCCC | -11.9
in CCCCCCC | -12
in CCCCCCCC | -12
in CCCCCCCCCC | -12
in CCCCCCCCO | -12.5
in CCCCCCCO | -12.5
in CCCCCCO | -12.4
in CCCCCO | -12.4
in CCCCCl | -13.5
in CCCCO | -12.3
in CCCCOC(C)=O | -13.4
in CCCCOCCCC | -12.6
in CCCO | -12.1
in CCO | -12.6
in CCOC(C)=O | -13.5
in CO | -12.1
in COC(C)=O | -13.7
in O | -6.57

Clc1c(Cl)c(Cl)c(-c2c(Cl)c(Cl)c(Cl)c(Cl)c2Cl)c(Cl)c1Cl
Conditions | solvation free energy, 298 K [kcal/mol]
in CCCCCCCCC=CCCCCCCCC(=O)OCC(COC(=O)CCCCCCCC=CCCCCCCCC)OC(=O)CCCCCCCC=CCCCCCCCC | -14.6
in O | -3.05

O=C(CCCN1CCC(O)(c2ccc(Cl)cc2)CC1)c1ccc(F)cc1
Conditions | solvation free energy, 298 K [kcal/mol]
in CCCCOC(C)=O | -19.5
in O | -15.4

CCCCCCCCCC(=O)c1c(C)[nH]n(-c2ccccc2)c1=O
Conditions | solvation free energy, 298 K [kcal/mol]
in O | -8.46

COc1ccc(C(c2ccc(OC)cc2)C(Cl)(Cl)Cl)cc1
Conditions | solvation free energy, 298 K [kcal/mol]
in O | -6.93

ClCCCCl
Conditions | solvation free energy, 298 K [kcal/mol]
in CC(C)=O | -5.63
in CCCCCC | -4.43
in ClC(Cl)(Cl)Cl | -5.2
in O | -1.89

CC1(C)C2CC3C(C2)C31C
Conditions | solvation free energy, 298 K [kcal/mol]
in O | 0.87

CCCCCCCCC
Conditions | solvation free energy, 298 K [kcal/mol]
in Brc1ccccc1 | -5.75
in C1CCCCC1 | -6.23
in C1CCOC1 | -5.94
in C1COCCO1 | -5.1
in C=CCCCC | -6.1
in C=CCCCCCC | -5.95
in C=CCCCCCCCC | -5.89
in CC1COC(=O)O1 | -3.44
in CC#N | -4.12
in CC(=O)N(C)C | -4.53
in CC(=O)O | -4.5
in CC(=O)c1ccccc1 | -4.92
in CC(C)=O | -4.99
in CC(C)CC(C)(C)C | -5.95
in CC(C)CCCC(C)CCCC(C)CCCCC(C)CCCC(C)CCCC(C)C | -5.5
in CC(C)CCO | -5.21
in CC(C)O | -5.01
in CC(C)OC(C)C | -5.88
in CCBr | -5.96
in CCC#N | -4.68
in CCC(C)=O | -5.31
in CCCC#N | -5.01
in CCCC(=O)OCC | -5.57
in CCCC(C)=O | -5.41
in CCCCC | -6.12
in CCCCCC | -6.12
in CCCCCC(C)=O | -5.45
in CCCCCCC | -6.06
in CCCCCCCC | -5.98
in CCCCCCCCCC | -5.88
in CCCCCCCCCCCC | -5.79
in CCCCCCCCCCCCCCCC | -5.68
in CCCCCCCCO | -5.29
in CCCCCCOC(C)=O | -5.56
in CCCCO | -5.09
in CCCCOC(C)=O | -5.48
in CCCCOCCCC | -5.95
in CCCO | -4.94
in CCN(CC)CC | -6.06
in CCO | -4.84
in CCOC(=O)c1ccccc1C(=O)OCC | -4.53
in CCOC(C)=O | -5.32
in CCOCC | -5.97
in CCOCCOCCOCC | -5.25
in CCOc1ccccc1 | -5.42
in CN1CCCC1=O | -4.3
in CN(C)C=O | -4.3
in CN(C)P(=O)(N(C)C)N(C)C | -4.86
in CNC=O | -3.82
in CO | -4.4
in COC(C)=O | -5.07
in COCCO | -4.28
in COc1ccccc1 | -5.35
in CS(C)=O | -3.24
in Cc1ccc(C)cc1 | -5.93
in Cc1ccccc1 | -5.95
in Cc1ccccn1 | -5.45
in ClC(Cl)(Cl)Cl | -6.2
in ClC(Cl)Cl | -6.04
in ClCCCl | -5.32
in ClCCl | -5.72
in Clc1ccccc1 | -5.97
in FC(F)(F)C(F)(F)C(F)(F)C(F)(F)C(F)(F)C(F)(F)C(F)(F)C(F)(F)F | -3.92
in FC(F)(F)C(F)(F)C(F)(F)C(F)(F)C(F)(F)C(F)(F)F | -3.96
in Fc1ccccc1 | -5.76
in ICI | -3.73
in N#CCCCCC#N | -3.46
in N#Cc1ccccc1 | -4.97
in NC=O | -1.66
in NCCO | -2.24
in Nc1ccccc1 | -4.09
in O | 2.98
in O=C1CCCCC1 | -5.24
in O=C1CCCO1 | -3.71
in O=CN1CCOCC1 | -3.47
in OCCO | -2.03
in OCCOCCO | -2.76
in OCCOCCOCCO | -2.92
in OCCOCCOCCOCCO | -3.13
in OCc1ccccc1 | -4.36
in S=C=S | -6.17
in c1ccccc1 | -5.89
in c1ccncc1 | -5.13

CC(C)=O
Conditions | solvation free energy, 298 K [kcal/mol]
in Brc1cccc2ccccc12 | -3.32
in C1CCOC1 | -3.89
in C1COCCO1 | -3.87
in CC#N | -4.32
in CC(=O)N(C)C | -3.95
in CC(=O)OCc1ccccc1 | -3.69
in CC(C)CC(C)(C)C | -2.44
in CC(C)CCCC(C)CCCC(C)CCCCC(C)CCCC(C)CCCC(C)C | -2.37
in CC(C)O | -3.36
in CC=O | -4.07
in CCC(C)=O | -3.98
in CCCCCC | -2.68
in CCCCCCC | -2.57
in CCCCCCCC | -2.53
in CCCCCCCCC=CCCCCCCCC(=O)OCC(COC(=O)CCCCCCCC=CCCCCCCCC)OC(=O)CCCCCCCC=CCCCCCCCC | -3.07
in CCCCCCCCCC | -2.46
in CCCCCCCCCCCCCCCC | -2.3
in CCCCCCCCO | -3.14
in CCCCCO | -3.4
in CCCCCl | -3.62
in CCCCN(C=O)CCCC | -3.55
in CCCCO | -3.51
in CCCCOCCCC | -3.04
in CCN1CCCC1=O | -3.77
in CCN(CC)C(C)=O | -3.82
in CCNC(C)=O | -3.56
in CCNC=O | -3.72
in CCO | -3.78
in CCOC(=O)c1ccccc1C(=O)OCC | -3.53
in CCOC(C)=O | -3.9
in CCOCC | -3.51
in CCOP(=O)(OCC)OCC | -3.64
in CI | -3.91
in CN1CCCC1=O | -3.94
in CN1CCCCC1=O | -3.82
in CN1CCN(C)C1=O | -3.61
in CN(C)C=O | -4.02
in CNC(C)=O | -3.67
in CNC=O | -3.82
in CO | -4.05
in COC(C)=O | -4.02
in COP(=O)(OC)OC | -3.97
in CS(C)=O | -3.67
in Cc1ccc(C)cc1 | -3.39
in Cc1cccc(C)c1 | -3.4
in Cc1ccccc1C | -3.36
in ClC(Cl)(Cl)Cl | -3.25
in ClC(Cl)Cl | -4.67
in ClCCCl | -4.27
in ClCCl | -4.62
in Clc1ccccc1 | -3.63
in N#CCCOCCC#N | -3.86
in NC=O | -3.77
in O | -3.84
in O=C1CCCCC1 | -3.8
in O=CN1CCOCC1 | -3.66
in OCCOCCO | -3.32
in S=C=S | -3.39
in [2H]O[2H] | -3.82
in c1ccc2ncccc2c1 | -3.62
in c1ccccc1 | -3.79
